Laboratory results from ChEMBL document CHEMBL1909046, “DrugMatrix in vitro pharmacology data”.

Legend:
Cathepsin G = target: T1, Cathepsin G (Homo sapiens, UniProt P08311); assay: biochemical; format: tissue-based, Neutrophil; settings: neutrophil;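 further: inhibition of Cathepsin G enzyme activity, tested on an AMC-conjugated peptide substrate; in other assays of this panel Not Active means under 50% inhibition at 10 µM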
T1 sequence (P08311 whole entry): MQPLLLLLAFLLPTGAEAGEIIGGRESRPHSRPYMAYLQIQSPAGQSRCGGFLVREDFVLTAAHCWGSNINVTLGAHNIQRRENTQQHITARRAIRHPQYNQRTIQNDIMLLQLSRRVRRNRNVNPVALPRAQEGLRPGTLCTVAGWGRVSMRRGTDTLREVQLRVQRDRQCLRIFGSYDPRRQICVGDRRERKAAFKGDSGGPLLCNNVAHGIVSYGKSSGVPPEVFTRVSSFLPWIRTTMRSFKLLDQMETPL

[1] = target: Epidermal growth factor receptor (Homo sapiens, UniProt P00533); assay: DRUGMATRIX: Protein Tyrosine Kinase, EGF Receptor enzyme inhibition (substrate: Poly(Glu:Tyr)); format: cell-based, Insect cells; settings: insect cells, Not Active = under 50% inhibition at 10 µM
[2] = target: Protein kinase C alpha type (Homo sapiens, UniProt P17252); format: cell-based; settings: sf9;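 further: inhibition of PKCalpha kinase activity measured in an enzyme assay with histone as the phosphorylation substrate; in other assays of this panel Not Active means under 50% inhibition at 10 µM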
[3] = target: T2, Cholecystokinin receptor type A (Homo sapiens, UniProt P32238); format: cell membranes, Membrane; settings: 1321-n1; further: in other assays of this panel Not Active means under 50% inhibition at 10 µM
T2 sequence (P32238 whole entry): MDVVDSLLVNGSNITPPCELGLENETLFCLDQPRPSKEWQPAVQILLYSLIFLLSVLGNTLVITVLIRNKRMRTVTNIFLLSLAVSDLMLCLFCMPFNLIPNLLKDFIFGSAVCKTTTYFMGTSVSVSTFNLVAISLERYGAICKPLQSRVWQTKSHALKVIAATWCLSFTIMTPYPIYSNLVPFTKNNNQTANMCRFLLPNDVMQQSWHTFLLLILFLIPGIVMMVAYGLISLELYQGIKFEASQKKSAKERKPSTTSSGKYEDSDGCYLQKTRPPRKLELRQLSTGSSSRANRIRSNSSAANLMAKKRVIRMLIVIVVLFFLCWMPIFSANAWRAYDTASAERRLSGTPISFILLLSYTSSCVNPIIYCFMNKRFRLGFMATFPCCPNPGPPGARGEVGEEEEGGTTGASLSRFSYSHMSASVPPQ

[4] = target: 5-hydroxytryptamine receptor 1B (Rattus norvegicus, UniProt P28564); format: cell membranes, Wistar, Cerebral cortex, Membrane; further: in other assays of this panel Not Active means under 50% inhibition at 10 µM
Melanocortin receptor 3 = Melanocortin receptor 3 (Homo sapiens, UniProt P41968); format: cell membranes, HEK293, Membrane; settings: hek293; further: in other assays of this panel Not Active means under 50% inhibition at 10 µM
[5] = DRUGMATRIX: Phosphodiesterase PDE3 enzyme inhibition (substrate: [3H]cAMP + cAMP); format: tissue-based, Homo sapiens; settings: platelet; Not Active = under 50% inhibition at 10 µM

Chain of Melanocortin receptor 3 (P41968 whole entry): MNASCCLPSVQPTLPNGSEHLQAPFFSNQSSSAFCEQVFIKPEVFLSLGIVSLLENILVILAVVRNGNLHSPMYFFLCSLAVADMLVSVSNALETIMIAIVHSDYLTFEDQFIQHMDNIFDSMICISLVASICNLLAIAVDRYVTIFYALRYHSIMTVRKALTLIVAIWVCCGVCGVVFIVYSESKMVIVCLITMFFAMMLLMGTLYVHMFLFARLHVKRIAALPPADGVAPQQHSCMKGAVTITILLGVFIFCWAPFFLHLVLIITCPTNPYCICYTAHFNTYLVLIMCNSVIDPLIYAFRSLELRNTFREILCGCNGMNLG
Chain of 5-hydroxytryptamine receptor 1B (P28564 whole entry): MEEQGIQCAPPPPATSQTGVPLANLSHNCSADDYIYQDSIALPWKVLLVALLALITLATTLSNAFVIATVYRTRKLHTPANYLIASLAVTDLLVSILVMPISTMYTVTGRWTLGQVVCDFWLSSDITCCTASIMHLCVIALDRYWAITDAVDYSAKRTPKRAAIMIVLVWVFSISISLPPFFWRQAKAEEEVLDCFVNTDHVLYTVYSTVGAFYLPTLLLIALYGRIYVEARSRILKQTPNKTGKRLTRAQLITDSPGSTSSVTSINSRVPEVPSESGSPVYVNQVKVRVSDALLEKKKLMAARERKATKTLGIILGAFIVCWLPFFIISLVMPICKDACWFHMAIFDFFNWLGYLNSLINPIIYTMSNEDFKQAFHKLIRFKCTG

Molecule | IC50 (Cathepsin G) | IC50 [1] | IC50 [2] | IC50 [3] | IC50 [4] | IC50 (Melanocortin receptor 3) | IC50 [5] | Ki [5] | Ki (Cathepsin G) | IC50 ([1]; read-out: IC50) [µM] | Ki [2] | Ki [3] | Ki [4] | Ki (Melanocortin receptor 3) | Ki [1] | IC50 ([4]; read-out: IC50) [µM] | Ki ([4]; read-out: Ki) [µM]
CO[C@H]1O[C@@H]2O[C@@]3(C)CC[C@H]4[C@H](C)CC[C@@H]([C@H]1C)[C@@]24OO3 | Not Active | Not Active | Not Active | Not Active | Not Active | Not Active | Not Active | Not Active | – | – | – | – | – | – | – | – | –
O=c1[nH]c2ccccc2c2ccccc12 | Not Active | Not Active | Not Active | Not Active | Not Active | Not Active | Not Active | Not Active | – | – | – | – | – | – | – | – | –
COc1ccc(C[C@H](N)C(=O)N[C@H]2[C@@H](O)[C@H](n3cnc4c(N(C)C)ncnc43)O[C@@H]2CO)cc1 [PUROMYCIN] | Not Active | Not Active | Not Active | Not Active | Not Active | Not Active | Not Active | Not Active | – | – | – | – | – | – | – | – | –
CHROMIC CHLORIDE | Not Active | – | Not Active | Not Active | Not Active | Not Active | Not Active | Not Active | Not Active | 2.96 | Not Active | Not Active | Not Active | Not Active | – | – | –
C[C@@H]1[C@H](O)[C@@H](C)/C=C/C=C/C=C/C=C/C=C/C=C/C=C/[C@H](O[C@@H]2O[C@H](C)[C@@H](O)[C@H](N)[C@@H]2O)C[C@@H]2O[C@](O)(C[C@@H](O)C[C@@H](O)[C@H](O)CC[C@@H](O)C[C@@H](O)CC(=O)O[C@H]1C)C[C@H](O)[C@H]2C(=O)O [AMPHOTERICIN B] | Not Active | Not Active | Not Active | Not Active | Not Active | Not Active | Not Active | Not Active | – | – | – | – | – | – | – | – | –
Cc1c(N)nc([C@H](CC(N)=O)NC[C@H](N)C(N)=O)nc1C(=O)N[C@H](C(=O)N[C@H](C)[C@@H](O)[C@H](C)C(=O)N[C@H](C(=O)NCCc1nc(-c2nc(C(=O)NCCC[S+](C)C)cs2)cs1)[C@@H](C)O)[C@@H](O[C@@H]1O[C@@H](CO)[C@@H](O)[C@H](O)[C@@H]1O[C@H]1O[C@H](CO)[C@@H](O)[C@H](OC(N)=O)[C@@H]1O)c1c[nH]cn1.[Br-] [BLEOMYCIN A2] | Not Active | Not Active | Not Active | Not Active | Not Active | Not Active | Not Active | Not Active | – | – | – | – | – | – | – | – | –
O=C(O)CNCP(=O)(O)O [GLYPHOSATE] | Not Active | Not Active | Not Active | Not Active | Not Active | Not Active | Not Active | Not Active | – | – | – | – | – | – | – | – | –
Nc1nc(F)nc2c1ncn2[C@@H]1O[C@H](CO)[C@@H](O)[C@@H]1O [FLUDARABINE] | Not Active | Not Active | Not Active | Not Active | Not Active | Not Active | Not Active | Not Active | – | – | – | – | – | – | – | – | –
NCC(CC(=O)O)c1ccc(Cl)cc1 (stereo not given) [BACLOFEN] | Not Active | Not Active | Not Active | Not Active | Not Active | Not Active | Not Active | Not Active | – | – | – | – | – | – | – | – | –
O=C(Nc1ccc(Cl)c(Cl)c1)c1cc(Cl)cc(Cl)c1O [3,3',4',5-TETRACHLOROSALICYLANILIDE] | Not Active | Not Active | Not Active | Not Active | Not Active | Not Active | Not Active | Not Active | – | – | – | – | – | – | – | – | –
Oc1ccccc1 [PHENOL] | Not Active | Not Active | Not Active | Not Active | Not Active | Not Active | Not Active | Not Active | – | – | – | – | – | – | – | – | –
CC(C)NCC(O)COc1ccc(CC(N)=O)cc1 (stereo not given) [ATENOLOL] | Not Active | Not Active | Not Active | Not Active | Not Active | Not Active | Not Active | Not Active | – | – | – | – | – | – | – | – | –
CNC[C@H](O)c1ccc(O)c(O)c1 [EPINEPHRINE] | Not Active | Not Active | Not Active | Not Active | Not Active | Not Active | Not Active | Not Active | – | – | – | – | – | – | – | – | –
CN(Cc1cc(Br)cc(Br)c1N)C1CCCCC1 [BROMHEXINE] | Not Active | Not Active | Not Active | Not Active | Not Active | Not Active | Not Active | Not Active | – | – | – | – | – | – | – | – | –
CC(C)Cc1ccc([C@H](C)C(=O)O)cc1 [DEXIBUPROFEN] | Not Active | Not Active | Not Active | Not Active | Not Active | Not Active | Not Active | Not Active | – | – | – | – | – | – | – | – | –
CC(C)Cn1cnc2c(N)nc3ccccc3c21 [IMIQUIMOD] | Not Active | Not Active | Not Active | Not Active | Not Active | Not Active | Not Active | Not Active | – | – | – | – | – | – | – | – | –
CC(C)(C#N)c1cc(Cn2cncn2)cc(C(C)(C)C#N)c1 [ANASTROZOLE] | Not Active | Not Active | Not Active | Not Active | Not Active | Not Active | Not Active | Not Active | – | – | – | – | – | – | – | – | –
POVIDONE | Not Active | Not Active | Not Active | Not Active | Not Active | Not Active | Not Active | Not Active | Not Active | – | Not Active | Not Active | Not Active | Not Active | Not Active | – | –
COc1ccccc1OCCNCC(O)COc1cccc2[nH]c3ccccc3c12 (stereo not given) [CARVEDILOL] | Not Active | Not Active | Not Active | Not Active | – | Not Active | Not Active | Not Active | – | – | – | – | – | – | – | 1.29 | 0.589
Nc1ccc(Cc2ccc(N)cc2)cc1 | Not Active | Not Active | Not Active | Not Active | Not Active | Not Active | Not Active | Not Active | – | – | – | – | – | – | – | – | –
CARBOXYMETHYLCELLULOSE | Not Active | Not Active | Not Active | Not Active | Not Active | Not Active | Not Active | Not Active | Not Active | – | Not Active | Not Active | Not Active | Not Active | Not Active | – | –
c1ccc2sc(SSc3nc4ccccc4s3)nc2c1 [BENZOTHIAZYL DISULFIDE] | Not Active | Not Active | Not Active | Not Active | Not Active | Not Active | Not Active | Not Active | – | – | – | – | – | – | – | – | –
O=C1c2ccccc2C(=O)C1c1ccccc1 [PHENINDIONE] | Not Active | Not Active | Not Active | Not Active | Not Active | Not Active | Not Active | Not Active | – | – | – | – | – | – | – | – | –
Nc1ccc(C(=O)O)c(O)c1 [AMINOSALICYLIC ACID] | Not Active | Not Active | Not Active | Not Active | Not Active | Not Active | Not Active | Not Active | – | – | – | – | – | – | – | – | –
